Experiments:
Format in all cases: biochemical
PKC (mix of isoforms) = assay: PKC assay (counter screen); settings: myelin basic protein substrate; read-out: Counter screens IC50 (μM) PKC
Protocol: Final assay concentrations were as follows: 0.25 mM EGTA, 0.4 mM CaCl, 20 mM Tris pH 7.5, 10 mM MgCl, 1 mM 2-mercaptoethanol, 0.32 mg/ml phosphatidylserine, 0.032 mg/ml diacylglycerol, 10 μM ^33P-ATP, 70 μg/ml MBP, 10 ng/ml PKC, 0.1 mg/ml BSA.
Assays are performed using 96 deep well assay plates. In each assay well 10 μl of solvent control or appropriate inhibitor dilution with 5 μl ^33P-ATP (components #5 and #3) were premixed. In a separate tube, a mixture containing equal volumes of components #1, #2, #4, and #6 was prepared. The assay reaction was initiated by adding 35 μl of the components #1, #2, #4, and #6 mixture to wells containing ^33P-ATP and inhibitor. The liquid in the assay wells was thoroughly mixed and the assay reactions incubated for 20 minutes at room temperature. The reactions were stopped by adding 100 mM EDTA (50 μl) and 100 mM sodium pyrophosphate (50 μl) and mixing. Phosphorylated MBP was collected on PVDF membranes in 96 well filter plates and quantitated by scintillation counting.

PKA catalytic subunit = biological target: T1, PKA catalytic subunit (Bos taurus, UniProt P00517); assay: PKA assay (counter screen)
T1 construct: purchased UBI (Upstate Biotechnology) 14-114
Protocol: Each individual PKA assay consists of the following components: • 1) 10 μl 5×PKA assay buffer (200 mM Tris pH7.5, 100 mM MgCl2, 5 mM 2-mercaptoethanol, 0.5 mM EDTA) • 2) 10 μl of a 50 μM stock of Kemptide (Sigma) diluted into water • 3) 10 μl ^33P-ATP (prepared by diluting 1.0 μl ^33P-ATP [10 mCi/ml] into 200 μl of a 50 μM stock of unlabeled ATP) • 4) 10 μl appropriate solvent control dilution or inhibitor dilution • 5) 10 μl of a 70 nM stock of PKA catalytic subunit (UBI catalog #14-114) diluted in 0.5 mg/ml BSA
The final assay concentrations were 40 mM Tris pH 7.5, 20 mM MgCl2, 1 mM 2-mercaptoethanol, 0.1 mM EDTA, 10 μM Kemptide, 10 μM ^33P-ATP, 14 nM PKA and 0.1 mg/ml BSA.
Assays were assembled in 96 deep-well assay plates. Components #3 and #4 were premixed and in a separate tube, a mixture containing equal volumes of components #1, #2, and #5 was prepared. The assay reaction was initiated by adding 30 μl of the components #1, #2, and #5 mixture to wells containing ^33P-ATP and inhibitor. The liquid in the assay wells was mixed and the assay reactions incubated for 20 minutes at room temperature. […]
The enzyme reaction product (phosphorylated Kemptide) was quantitated using p81 phosphocellulose 96 well filter plates (Millipore). […] 30 μl scintillation fluid was added to each well and the filters counted on a TopCount (Packard).

delta PH-Akt1 = biological target: T2, delta PH-Akt1 (Homo sapiens, UniProt P31749); assay: Akt kinase assay, phosphorylation of GSK3-derived peptide
T2 construct: PCR deletion mutagenesis was done using the full length Akt1 gene in the pS2neo vector as template; biotin tag (from pS2neo vector); made in house; host or cells: Drosophila S2 cells
T2 sequence (P31749 with tags, fused parts or gaps): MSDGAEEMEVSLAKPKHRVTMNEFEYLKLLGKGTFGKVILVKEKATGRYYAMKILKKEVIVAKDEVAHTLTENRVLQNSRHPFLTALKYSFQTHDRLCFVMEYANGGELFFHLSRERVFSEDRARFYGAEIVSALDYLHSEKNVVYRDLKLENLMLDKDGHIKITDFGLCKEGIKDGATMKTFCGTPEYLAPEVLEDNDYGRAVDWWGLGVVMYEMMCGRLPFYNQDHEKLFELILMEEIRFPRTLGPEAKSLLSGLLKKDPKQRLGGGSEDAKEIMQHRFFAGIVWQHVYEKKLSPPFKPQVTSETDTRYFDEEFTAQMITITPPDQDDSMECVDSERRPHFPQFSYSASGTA
Protocol: For the expression of a pleckstrin homology domain (PH) deleted (Δ aa 4-129, which includes deletion of a portion of the Akt1 hinge region) version of Akt1, PCR deletion mutagenesis was done using the full length Akt1 gene in the pS2neo vector as template. The PCR was carried out in 2 steps using overlapping internal primers (5′[…]Δ[…] 3′ (SEQ.ID.NO.: 6), and 5′[…]Δ[…] TATTC 3′ (SEQ.ID.NO.: 7)) which encompassed the deletion and 5′ and 3′ flanking primers which encompassed the KpnI site and middle T tag on the 5′ end. The final PCR product was digested with KpnI and SmaI and ligated into the pS2neo full length Akt1 KpnI/Sma I cut vector, effectively replacing the 5′ end of the clone with the deleted version.
This procedure describes a kinase assay which measures phosphorylation of a biotinylated GSK3-derived peptide by human recombinant active Akt/PBK isoforms or Akt/PBK mutants. The ^33P-labeled biotinylated product can be captured and detected using Streptavidin coated Flashplates (NEN LifeSciences) or Streptavidin Membrane Filter Plates (Promega). Alternatively, a GSK3-derived peptide with 2 added lysine residues was used as the substrate and subsequently captured using Phosphocellulose Membrane Filter Plates (Polyfiltronics). […]
(§1) The plates were covered with sealing tape and counted using the Packard TopCount with the appropriate settings for counting [^33P] in Flashplates. […]

active human Akt1 = biological target: T3, active human Akt1 (Homo sapiens, UniProt P31749); assay: as above; settings: GSK3 peptide substrate; read-out: GSK3 Peptide Substrate IC50 (μM) Akt-1
T3 construct: purchased Upstate Biotechnology 14-276
T3 sequence (P31749 whole entry): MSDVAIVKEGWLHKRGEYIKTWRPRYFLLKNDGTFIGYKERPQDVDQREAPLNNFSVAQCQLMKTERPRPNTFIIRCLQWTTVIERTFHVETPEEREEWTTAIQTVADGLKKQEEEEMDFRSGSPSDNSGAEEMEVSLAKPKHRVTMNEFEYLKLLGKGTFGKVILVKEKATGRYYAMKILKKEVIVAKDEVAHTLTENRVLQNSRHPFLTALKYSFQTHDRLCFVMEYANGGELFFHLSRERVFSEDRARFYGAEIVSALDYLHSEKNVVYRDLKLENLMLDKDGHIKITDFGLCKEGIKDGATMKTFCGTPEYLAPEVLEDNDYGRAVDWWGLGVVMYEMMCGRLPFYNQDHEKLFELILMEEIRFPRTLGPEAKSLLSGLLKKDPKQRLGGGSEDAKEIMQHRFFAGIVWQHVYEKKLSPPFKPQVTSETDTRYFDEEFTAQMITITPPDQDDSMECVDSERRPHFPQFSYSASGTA
Text: (§2) This procedure describes a kinase assay which measures phosphorylation of a biotinylated GSK3-derived peptide by human recombinant active Akt/PBK isoforms or Akt/PBK mutants. The ^33P-labeled biotinylated product can be captured and detected using Streptavidin coated Flashplates (NEN LifeSciences) or Streptavidin Membrane Filter Plates (Promega). Alternatively, a GSK3-derived peptide with 2 added lysine residues was used as the substrate and subsequently captured using Phosphocellulose Membrane Filter Plates (Polyfiltronics).
(§3) Active human Akt: The following active human Akt isoforms were utilized in the in vitro assays: active human Akt1 (obtained from Upstate Biotechnology, catalog no. 14-276, 15 μg/37 μl (6.76 μM)) or recombinant lipid activated Akt1 (prepared as described in Example 5); Akt2 (prepared as described in Example 5); Akt3 (prepared as described in Example 5); and delta PH-Akt1 (prepared as described in Example 5).
(§4) Akt specific peptide substrate: GSK3α (S21) Peptide #3928, biotin-[…] (SEQ.ID.NO.: 15), FW=1517.8 (obtained from Macromolecular Resources) for Streptavidin Flashplate or Streptavidin Filter Plate detection.
(§5) GSK3α (S21) Peptide #G80613, […] (SEQ.ID.NO.: 14), FW=1547.8 (obtained from Research Genetics) for Phosphocellulose filter plate detection.
(§6) • B. Active Akt (500 nM): Diluent (1× Assay buffer, 10% glycerol, 0.1% β-mercaptoethanol, 1.0 μM microcystin LR and 1.0 mM EDTA) was added to a vial containing 37 μl of active Akt isoform (6.76 μM). Aliquots were flash frozen in liquid N2 and stored at −70° C. • C. […] Procedure for Streptavidin Flash Plate Assay: Step 1: […]
as §1
(§7) The bottom of the plate was sealed with white backing tape, 30 μl/well of Microscint 20 (Packard Instruments, catalog no. 6013621) was added. The top of the plate was sealed with clear sealing tape, and the plate then counted using the Packard TopCount with the appropriate settings for [^33P] with liquid scintillant. […]

Akt2 = biological target: T4, Akt2 (Homo sapiens, UniProt P31751); assay: as above
T4 construct: a middle T tag was added to the 5′ end of the full length Akt2 using the PCR primer; biotin tag (from pS2neo vector); made in house; host or cells: Drosophila S2 cells
T4 sequence (P31751 whole entry): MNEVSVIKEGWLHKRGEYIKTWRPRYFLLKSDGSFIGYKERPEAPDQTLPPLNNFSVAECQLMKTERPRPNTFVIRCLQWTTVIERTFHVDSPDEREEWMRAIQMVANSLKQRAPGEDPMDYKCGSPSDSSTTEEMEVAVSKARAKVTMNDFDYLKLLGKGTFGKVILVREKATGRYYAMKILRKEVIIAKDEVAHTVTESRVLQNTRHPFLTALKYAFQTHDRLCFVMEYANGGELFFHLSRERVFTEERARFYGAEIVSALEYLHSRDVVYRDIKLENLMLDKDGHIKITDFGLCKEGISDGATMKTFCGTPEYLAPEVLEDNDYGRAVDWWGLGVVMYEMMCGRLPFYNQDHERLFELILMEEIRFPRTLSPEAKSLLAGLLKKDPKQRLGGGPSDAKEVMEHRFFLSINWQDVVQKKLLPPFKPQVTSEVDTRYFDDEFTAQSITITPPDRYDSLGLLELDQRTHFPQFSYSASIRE
Text: as §2, §3, §4, §5, §6, §1, §7

Akt3 = biological target: T5, Akt3 (Homo sapiens, UniProt Q9Y243); assay: as above
T5 construct: a middle T tag was added to the 5′ end of the full length Akt3 clone using the PCR primer; biotin tag (from pS2neo vector); made in house; host or cells: Drosophila S2 cells
T5 sequence (Q9Y243 whole entry): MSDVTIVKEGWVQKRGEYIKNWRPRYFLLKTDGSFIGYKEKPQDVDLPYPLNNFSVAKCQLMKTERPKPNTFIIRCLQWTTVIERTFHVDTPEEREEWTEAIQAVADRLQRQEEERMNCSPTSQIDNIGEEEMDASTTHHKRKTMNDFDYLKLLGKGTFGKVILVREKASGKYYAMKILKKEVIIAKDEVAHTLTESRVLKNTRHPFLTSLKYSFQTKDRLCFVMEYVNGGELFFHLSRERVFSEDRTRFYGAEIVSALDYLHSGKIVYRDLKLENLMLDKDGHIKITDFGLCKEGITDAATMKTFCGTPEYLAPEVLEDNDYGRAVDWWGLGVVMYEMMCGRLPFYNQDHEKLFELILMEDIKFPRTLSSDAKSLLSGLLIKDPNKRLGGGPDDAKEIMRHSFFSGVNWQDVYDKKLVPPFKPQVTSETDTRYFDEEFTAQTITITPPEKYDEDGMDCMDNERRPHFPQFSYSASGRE
Text: as §2, §3, §4, §5, §6, §1, §7

Question: OCCCCOc1nn2c(-c3ccccc3)nnc2cc1-c1ccccc1 [Compound 2] was tested. Which IC50 (PKC (mix of isoforms)) did it give?
Answer: > 40 µM

Question: And the IC50 (PKA catalytic subunit)?
Answer: > 40 µM

Question: And the IC50 (delta PH-Akt1)?
Answer: > 50 µM

Question: What about the IC50 (active human Akt1) of the same molecule?
Answer: 4.65 µM

Question: What about the IC50 (Akt2) of the same molecule?
Answer: > 50 µM

Question: What about the IC50 (Akt3) of the same molecule?
Answer: > 50 µM

Question: Which IC50 (PKC (mix of isoforms)) does the source give for OCCOc1nn2c(-c3ccccc3)nnc2cc1-c1ccccc1 [Compound 1, 6-(2-Hydroxyethyl)oxy-3,7-diphenyl-[1,2,4]triazolo[4,3-b]pyridazine] here?
Answer: > 40 µM
